Assay [1] deals with T1, human recombinant HDAC1 (Homo sapiens, UniProt Q13547).
T1 construct: purchased Enzo Life Science, Inc. BML-SE456
As to the kind of experiment: HDAC1 enzyme activity inhibition (HDAC Fluorimetric Drug Discovery Kit). Particulars: human recombinant HDAC1; IC50 calculated with GraphPad Prism; read-out: HDAC1. Type of assay: biochemical. The method in brief: (§1)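 Compounds in 5-fold dilution series were incubated with […] enzyme and 10 μM substrate at 30° C for 60 minutes. Fluor de Lys Developer II was then added for 30 minutes to stop the reaction and develop the fluorescent signal.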

Assay [2] addresses T2, human recombinant HDAC6 (Homo sapiens, UniProt Q9UBN7).
T2 construct: purchased Calbiochem Inc. 382180
T2 sequence (Q9UBN7 1-1215): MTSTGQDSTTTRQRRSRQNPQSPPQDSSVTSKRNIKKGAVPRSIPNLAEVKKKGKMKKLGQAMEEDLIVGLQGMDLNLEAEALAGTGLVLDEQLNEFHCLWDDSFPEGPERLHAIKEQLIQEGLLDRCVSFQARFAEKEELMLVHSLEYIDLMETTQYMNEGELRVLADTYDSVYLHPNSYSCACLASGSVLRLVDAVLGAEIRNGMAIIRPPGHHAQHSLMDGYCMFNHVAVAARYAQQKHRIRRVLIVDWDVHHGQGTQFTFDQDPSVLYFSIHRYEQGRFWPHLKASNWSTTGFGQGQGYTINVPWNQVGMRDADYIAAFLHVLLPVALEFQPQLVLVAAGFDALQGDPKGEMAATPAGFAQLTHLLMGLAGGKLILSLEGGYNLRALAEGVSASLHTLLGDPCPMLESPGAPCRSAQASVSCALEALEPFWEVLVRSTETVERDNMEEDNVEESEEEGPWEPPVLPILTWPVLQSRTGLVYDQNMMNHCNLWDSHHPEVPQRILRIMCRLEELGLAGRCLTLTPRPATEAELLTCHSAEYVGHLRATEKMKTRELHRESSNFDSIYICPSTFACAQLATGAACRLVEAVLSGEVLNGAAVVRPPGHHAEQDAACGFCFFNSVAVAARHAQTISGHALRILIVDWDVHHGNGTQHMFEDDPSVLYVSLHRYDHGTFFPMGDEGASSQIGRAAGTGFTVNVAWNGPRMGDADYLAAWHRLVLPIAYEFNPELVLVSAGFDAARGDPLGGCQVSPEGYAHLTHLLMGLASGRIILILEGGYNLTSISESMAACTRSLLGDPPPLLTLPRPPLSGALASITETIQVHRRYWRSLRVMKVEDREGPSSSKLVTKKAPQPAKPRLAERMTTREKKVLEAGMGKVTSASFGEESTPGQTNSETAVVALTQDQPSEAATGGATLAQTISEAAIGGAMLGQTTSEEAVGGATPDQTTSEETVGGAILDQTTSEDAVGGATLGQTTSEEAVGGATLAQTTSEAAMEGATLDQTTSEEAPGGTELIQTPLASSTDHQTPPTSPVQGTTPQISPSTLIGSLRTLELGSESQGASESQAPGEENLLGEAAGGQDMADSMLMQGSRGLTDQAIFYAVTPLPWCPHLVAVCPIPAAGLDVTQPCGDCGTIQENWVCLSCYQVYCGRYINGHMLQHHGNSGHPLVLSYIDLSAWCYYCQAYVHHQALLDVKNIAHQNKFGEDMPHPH
As to the kind of experiment: HDAC6 enzyme activity inhibition (HDAC Fluorimetric Drug Discovery Kit). As to conditions: for HDAC6 selectivity (fold): HDAC1 IC50 / HDAC6 IC50; for IC50: human recombinant HDAC6, IC50 calculated with GraphPad Prism. Type of assay: biochemical. The method in brief: as §1

T1 sequence (Q13547 whole entry): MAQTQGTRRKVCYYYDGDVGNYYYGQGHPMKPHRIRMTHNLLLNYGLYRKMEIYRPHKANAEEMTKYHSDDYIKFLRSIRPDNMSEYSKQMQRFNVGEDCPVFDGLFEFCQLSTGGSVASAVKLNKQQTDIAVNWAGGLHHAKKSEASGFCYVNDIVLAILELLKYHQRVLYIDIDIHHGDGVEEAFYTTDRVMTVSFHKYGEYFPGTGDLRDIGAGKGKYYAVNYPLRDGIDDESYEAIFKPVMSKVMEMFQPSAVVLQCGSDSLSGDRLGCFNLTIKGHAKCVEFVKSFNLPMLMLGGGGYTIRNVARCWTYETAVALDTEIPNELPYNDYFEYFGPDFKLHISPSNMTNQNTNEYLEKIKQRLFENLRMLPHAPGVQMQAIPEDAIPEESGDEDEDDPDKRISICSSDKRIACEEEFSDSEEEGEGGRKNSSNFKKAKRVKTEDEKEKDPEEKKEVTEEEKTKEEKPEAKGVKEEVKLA

Turning to `CC(C)N1CCN(Cc2cccc(-c3cn(Cc4ccc(-c5nnc(C(F)F)o5)cc4)nn3)c2)CC1` [Compound 4416, 2-(difluoromethyl)-5-(4-((4-(3-((4-isopropylpiperazin-1-yl)methyl)phenyl)-1H-1,2,3-triazol-1-yl)methyl)phenyl)-1,3,4-oxadiazole], the IC50 in assay [1] is greater than 50 µM. For the same compound, in assay [2], the “HDAC6 selectivity (fold)” value was 427 fold and the IC50 is 0.112 µM.
As for `FC(F)c1nnc(-c2ccc(Cn3cc(-c4cccc(CN5CC(F)(F)C5)c4)nn3)cc2)o1` [Compound 4417, 2-(4-((4-(3-((3,3-difluoroazetidin-1-yl)methyl)phenyl)-1H-1,2,3-triazol-1-yl)methyl)phenyl)-5-(difluoromethyl)-1,3,4-oxadiazole], the IC50 in assay [1] was greater than 50 µM. Also, in assay [2], the “HDAC6 selectivity (fold)” value came to 487 fold and the IC50 was 0.102 µM.
Take `Fc1cc(-c2nnc(C(F)F)o2)ccc1Cn1cc(-c2cccc(CN3CC(F)(F)C3)c2)nn1` [Compound 4418, 2-(4-((4-(3-((3,3-difluoroazetidin-1-yl)methyl)phenyl)-1H-1,2,3-triazol-1-yl)methyl)-3-fluorophenyl)-5-(difluoromethyl)-1,3,4-oxadiazole]: the figures for the IC50 in assay [1] and in assay [2] were greater than 50 µM and 0.0597 µM, respectively. Further, the “HDAC6 selectivity (fold)” value in assay [2] worked out at 837 fold.
The like results for `CN1CCN(c2cc(-c3cn(Cc4ccc(-c5nnc(C(F)F)o5)cc4)nn3)ccc2F)CC1` [Compound 4419, 2-(difluoromethyl)-5-(4-((4-(4-fluoro-3-(4-methylpiperazin-1-yl)phenyl)-1H-1,2,3-triazol-1-yl)methyl)phenyl)-1,3,4-oxadiazole] were, in that order, greater than 50 µM, 0.159 µM and 315 fold.
`CCN1CCN(c2cc(-c3cn(Cc4ccc(-c5nnc(C(F)F)o5)cc4)nn3)ccc2F)CC1` [Compound 4420, 2-(difluoromethyl)-5-(4-((4-(3-(4-ethylpiperazin-1-yl)-4-fluorophenyl)-1H-1,2,3-triazol-1-yl)methyl)phenyl)-1,3,4-oxadiazole]: the IC50 in assay [1] is greater than 50 µM. In assay [2], the “HDAC6 selectivity (fold)” value amounted to 287 fold and the IC50 was 0.174 µM.
`CC(C)N1CCN(c2cc(-c3cn(Cc4ccc(-c5nnc(C(F)F)o5)cc4)nn3)ccc2F)CC1` [Compound 4421, 2-(difluoromethyl)-5-(4-((4-(4-fluoro-3-(4-isopropylpiperazin-1-yl)phenyl)-1H-1,2,3-triazol-1-yl)methyl)phenyl)-1,3,4-oxadiazole]: the IC50 in assay [1] was greater than 50 µM; in assay [2], 0.247 µM. Moreover, in assay [2], the “HDAC6 selectivity (fold)” value came out at 202 fold.
The corresponding values for `Fc1ccc(-c2cn(Cc3ccc(-c4nnc(C(F)F)o4)cc3)nn2)cc1N1CCN(C2CCC2)CC1` [Compound 4422, 2-(4-((4-(3-(4-cyclobutylpiperazin-1-yl)-4-fluorophenyl)-1H-1,2,3-triazol-1-yl)methyl)phenyl)-5-(difluoromethyl)-1,3,4-oxadiazol] are greater than 50 µM, 0.392 µM and 127 fold.
The like results for `CN1CCN(c2cc(-c3cn(Cc4ccc(-c5nnc(C(F)F)o5)cc4F)nn3)ccc2F)CC1` [Compound 4424, 2-(difluoromethyl)-5-(3-fluoro-4-((4-(4-fluoro-3-(4-methylpiperazin-1-yl)phenyl)-1H-1,2,3-triazol-1-yl)methyl)phenyl)-1,3,4-oxadiazol] were, in that order, greater than 50 µM, 0.0894 µM and 559 fold.
For `CC(C)N1CCN(c2cc(-c3cn(Cc4ccc(-c5nnc(C(F)F)o5)cc4F)nn3)ccc2F)CC1` [Compound 4425], the IC50 in assay [1] was greater than 50 µM; in assay [2], 0.116 µM. In addition, the “HDAC6 selectivity (fold)” value in assay [2] is on record as 431 fold.
The corresponding values for `Fc1cc(-c2nnc(C(F)F)o2)ccc1Cn1cc(-c2ccc(F)c(N3CCN(C4CCC4)CC3)c2)nn1` [Compound 4426, 2-(4-((4-(3-(4-cyclobutylpiperazin-1-yl)-4-fluorophenyl)-1H-1,2,3-triazol-1-yl)methyl)-3-fluorophenyl)-5-(difluoromethyl)-1,3,4-oxadiazole] are greater than 50 µM, 0.15 µM and 334 fold.
The corresponding values for `Fc1cc(-c2nnc(C(F)F)o2)ccc1Cn1cc(-c2ccc(F)c(N3CCN(C4COC4)CC3)c2)nn1` [Compound 4427, 2-(difluoromethyl)-5-(3-fluoro-4-((4-(4-fluoro-3-(4-(oxetan-3-yl)piperazin-1-yl)phenyl)-1H-1,2,3-triazol-1-yl)methyl)phenyl)-1,3,4-oxadiazole] are greater than 50 µM, 0.0912 µM and 548 fold.
For `CN1C[C@@H]2C[C@H]1CN2c1cc(-c2cn(Cc3ccc(-c4nnc(C(F)F)o4)cc3)nn2)ccc1F` [Compound 4429, 2-(difluoromethyl)-5-(4-((4-(4-fluoro-3-((1S,4S)-5-methyl-2,5-diazabicyclo[2.2.1]heptan-2-yl)phenyl)-1H-1,2,3-triazol-1-yl)methyl)phenyl)-1,3,4-oxadiazole], the IC50 in assay [1] was greater than 50 µM. Further, in assay [2], the “HDAC6 selectivity (fold)” value turned out to be 747 fold and the IC50 was 0.0669 µM.
Regarding `CN1C[C@@H]2C[C@H]1CN2c1cc(-c2cn(Cc3ccc(-c4nnc(C(F)F)o4)cc3F)nn2)ccc1F` [Compound 4430, 2-(difluoromethyl)-5-(3-fluoro-4-((4-(4-fluoro-3-((1S,4S)-5-methyl-2,5-diazabicyclo[2.2.1]heptan-2-yl)phenyl)-1H-1,2,3-triazol-1-yl)methyl)phenyl)-1,3,4-oxadiazole], in assay [1], the IC50 was greater than 50 µM. In addition, in assay [2], the “HDAC6 selectivity (fold)” value was found to be 351 fold and the IC50 was 0.142 µM.
Regarding `CC(=O)N1CCC(Nc2cccc(-c3cn(Cc4ccc(-c5nnc(C(F)F)o5)cc4F)nn3)c2F)CC1` [Compound 4433, 1-(4-((3-(1-(4-(5-(difluoromethyl)-1,3,4-oxadiazol-2-yl)-2-fluorobenzyl)-1H-1,2,3-triazol-4-yl)-2-fluorophenyl)amino)piperidin-1-yl)ethan-1-one], the IC50 in assay [1] is greater than 50 µM. Besides, in assay [2], the “HDAC6 selectivity (fold)” value is 1510 fold and the IC50 was 0.0331 µM.
With `CCCN1CCC(Nc2cccc(-c3cn(Cc4ccc(-c5nnc(C(F)F)o5)cc4F)nn3)c2F)CC1` [Compound 4434, N-(3-(1-(4-(5-(difluoromethyl)-1,3,4-oxadiazol-2-yl)-2-fluorobenzyl)-1H-1,2,3-triazol-4-yl)-2-fluorophenyl)-1-propylpiperidin-4-amine], the IC50 in assay [1] is greater than 50 µM. In addition, in assay [2], the “HDAC6 selectivity (fold)” value came out at 2392 fold and the IC50 was 0.0209 µM.
`CN1CCC(Nc2ccc(F)c(-c3cn(Cc4ccc(-c5nnc(C(F)F)o5)cc4F)nn3)c2)CC1` [Compound 4435, N-(3-(1-(4-(5-(difluoromethyl)-1,3,4-oxadiazol-2-yl)-2-fluorobenzyl)-1H-1,2,3-triazol-4-yl)-4-fluorophenyl)-1-methylpiperidin-4-amine]: the IC50 in assay [1] is greater than 50 µM; in assay [2], 0.0298 µM. Besides, in assay [2], the “HDAC6 selectivity (fold)” value came to 1677 fold.

The values above are taken from patent US20230257372A1 (CHONG KUN DANG PHARMACEUTICAL CORP., priority 2020, published 2023).
